# From US12708632B2 (Jazz Pharmaceuticals Research UK Limited, priority 2020, dated 2026)
# Entries after “also recorded” stand apart in the source; their conditions may differ.
# System: seizures associated with Cortical Dysplasia and Cortical Brain Malformation
# Assay: Open label, expanded-access program of botanically derived purified CBD: caregiver-diary seizure frequency
# Type: in vivo, human patients
# Parameters: reduction in atonic seizures over the treatment period / reduction in tonic seizures over the treatment period / reduction in focal seizures without impairment over the treatment period: concentration or dose not given beside the values
# Details: for Seizure frequency: Focal with impairment: baseline 49.0; for Seizure frequency: Atonic: baseline 80.0
# Protocol: Subjects were required to be on one or more AEDs at stable doses for a minimum of two weeks prior to baseline and to have stable vagus nerve stimulation (VNS) settings and ketogenic diet ratios for a minimum of four weeks prior to baseline.
# Dose was then increased weekly by 5 mg/kg/day to a goal of 20 to 25 mg/kg/day.
# A maximum dose of 50 mg/kg/day could be utilised for patients who were tolerating the medication but had not achieved seizure control; these patients had further weekly titration by 5 mg/kg/day.
# Modifications were made to concomitant AEDs as per clinical indication.
# Seizure frequency, intensity, and duration were recorded by caregivers in a diary during a baseline period of at least 28 days. Changes in seizure frequency relative to baseline were calculated after at least 2 weeks and at defined timepoints of treatment.
# Patients may be defined as responders if they had more than 50% reduction in seizure frequency compared to baseline. the percent change in seizure frequency was calculated as follows: […]
# The percent change of seizure frequency may be calculated for any time interval where seizure number has been recorded. For the purpose of this example the percent change of seizure frequency for the end of the treatment period was calculated as follows: […]
structure (smiles),measurement,setting,value
"C=C(C)[C@@H]1CCC(C)=C[C@H]1c1c(O)cc(CCCCC)cc1O [CBD, cannabidiol]",Seizure frequency: Tonic,"Patient 4, 96 weeks, CBD 50.0 mg/kg/day, baseline 196.0",22.0 seizures per week
same,Seizure frequency: Tonic,"Patient 4, 120 weeks, CBD 42.6 mg/kg/day, baseline 196.0",16.0 seizures per week
same,Seizure frequency: Tonic,"Patient 4, 132 weeks, CBD 49.8 mg/kg/day, baseline 196.0",36.0 seizures per week
same,reduction in tonic seizures over the treatment period,"Patient 4, treated for 132 weeks, vs baseline",81.6%
same,Seizure frequency: Tonic,"Patient 5, 4 weeks, CBD 20.0 mg/kg/day, baseline 4.0",3.2 seizures per week
same,Seizure frequency: Tonic,"Patient 5, 8 weeks, CBD 35.0 mg/kg/day, baseline 4.0",11.0 seizures per week
same,Seizure frequency: Tonic,"Patient 5, 12 weeks, CBD 50.0 mg/kg/day, baseline 4.0",1.0 seizures per week
same,Seizure frequency: Tonic,"Patient 5, 24 weeks, CBD 50.0 mg/kg/day, baseline 4.0",0.0 seizures per week
same,Seizure frequency: Tonic,"Patient 5, 36 weeks, CBD 47.0 mg/kg/day, baseline 4.0",0.0 seizures per week
same,Seizure frequency: Tonic,"Patient 5, 48 weeks, CBD 46.0 mg/kg/day, baseline 4.0",1.0 seizures per week
same,Seizure frequency: Tonic,"Patient 5, 60 weeks, CBD 49.0 mg/kg/day, baseline 4.0",1.0 seizures per week
same,Seizure frequency: Tonic,"Patient 5, 72 weeks, CBD 50.0 mg/kg/day, baseline 4.0",0.0 seizures per week
same,Seizure frequency: Tonic,"Patient 5, 84 weeks, CBD 50.0 mg/kg/day, baseline 4.0",0.0 seizures per week
same,Seizure frequency: Tonic,"Patient 5, 96 weeks, CBD 49.7 mg/kg/day, baseline 4.0",0.0 seizures per week
same,Seizure frequency: Tonic,"Patient 5, 108 weeks, CBD 49.7 mg/kg/day, baseline 4.0",0.0 seizures per week
same,Seizure frequency: Tonic,"Patient 5, 132 weeks, CBD 49.1 mg/kg/day, baseline 4.0",0.0 seizures per week
same,Seizure frequency: Tonic,"Patient 5, 144 weeks, CBD 50.0 mg/kg/day, baseline 4.0",0.0 seizures per week
same,reduction in tonic seizures over the treatment period,"Patient 5, treated for 144 weeks, vs baseline",100%
same,Seizure frequency: Focal without impairment,"Patient 6, 4 weeks, CBD 25.0 mg/kg/day, baseline 20.0",8.0 seizures per week
same,Seizure frequency: Focal without impairment,"Patient 6, 8 weeks, CBD 25.0 mg/kg/day, baseline 20.0",0.0 seizures per week
same,Seizure frequency: Focal without impairment,"Patient 6, 16 weeks, CBD 25.0 mg/kg/day, baseline 20.0",4.0 seizures per week
same,Seizure frequency: Focal without impairment,"Patient 6, 24 weeks, CBD 25.0 mg/kg/day, baseline 20.0",2.0 seizures per week
same,reduction in focal seizures without impairment over the treatment period,"Patient 6, treated for 24 weeks, vs baseline",90%
same,Seizure frequency: Focal with impairment,"Patient 7, 2 weeks, CBD 10.0 mg/kg/day",22.0 seizures per week
same,Seizure frequency: Focal without impairment,"Patient 7, 2 weeks, CBD 10.0 mg/kg/day, baseline 233.0",182.0 seizures per week
same,Seizure frequency: Focal with impairment,"Patient 7, 4 weeks, CBD 20.0 mg/kg/day",26.0 seizures per week
same,Seizure frequency: Focal without impairment,"Patient 7, 4 weeks, CBD 20.0 mg/kg/day, baseline 233.0",62.0 seizures per week
same,Seizure frequency: Focal with impairment,"Patient 7, 8 weeks, CBD 25.0 mg/kg/day",35.0 seizures per week
same,Seizure frequency: Focal without impairment,"Patient 7, 8 weeks, CBD 25.0 mg/kg/day, baseline 233.0",125.0 seizures per week
same,Seizure frequency: Focal with impairment,"Patient 7, 12 weeks, CBD 25.0 mg/kg/day",40.0 seizures per week
same,Seizure frequency: Focal without impairment,"Patient 7, 12 weeks, CBD 25.0 mg/kg/day, baseline 233.0",112.0 seizures per week
same,Seizure frequency: Focal with impairment,"Patient 7, 16 weeks, CBD 25.0 mg/kg/day",66.7 seizures per week
same,Seizure frequency: Focal without impairment,"Patient 7, 16 weeks, CBD 25.0 mg/kg/day, baseline 233.0",93.3 seizures per week
same,Seizure frequency: Focal with impairment,"Patient 7, 24 weeks, CBD 25.0 mg/kg/day",62.4 seizures per week
same,Seizure frequency: Focal without impairment,"Patient 7, 24 weeks, CBD 25.0 mg/kg/day, baseline 233.0",96.8 seizures per week
same,Seizure frequency: Focal with impairment,"Patient 7, 36 weeks, CBD 20.0 mg/kg/day",94.8 seizures per week
same,Seizure frequency: Focal without impairment,"Patient 7, 36 weeks, CBD 20.0 mg/kg/day, baseline 233.0",39.7 seizures per week
same,Seizure frequency: Focal with impairment,"Patient 7, 48 weeks, CBD 20.0 mg/kg/day",62.5 seizures per week
same,Seizure frequency: Focal without impairment,"Patient 7, 48 weeks, CBD 20.0 mg/kg/day, baseline 233.0",92.9 seizures per week
same,Seizure frequency: Focal with impairment,"Patient 7, 60 weeks, CBD 20.0 mg/kg/day",72.8 seizures per week
same,Seizure frequency: Focal without impairment,"Patient 7, 60 weeks, CBD 20.0 mg/kg/day, baseline 233.0",141.2 seizures per week
same,Seizure frequency: Focal with impairment,"Patient 7, 72 weeks, CBD 20.0 mg/kg/day",179.7 seizures per week
same,Seizure frequency: Focal without impairment,"Patient 7, 72 weeks, CBD 20.0 mg/kg/day, baseline 233.0",139.4 seizures per week
same,reduction in focal seizures without impairment over the treatment period,"Patient 7, treated for 72 weeks, vs baseline",40.2%
same,Seizure frequency: Tonic,"Patient 8, 4 weeks, CBD 20.0 mg/kg/day, baseline 280.0",6.0 seizures per week
same,Seizure frequency: Tonic,"Patient 8, 8 weeks, CBD 25.0 mg/kg/day, baseline 280.0",5.0 seizures per week
same,Seizure frequency: Atonic,"Patient 8, 12 weeks, CBD 25.0 mg/kg/day",12.0 seizures per week
same,Seizure frequency: Tonic,"Patient 8, 12 weeks, CBD 25.0 mg/kg/day, baseline 280.0",60.0 seizures per week
same,Seizure frequency: Atonic,"Patient 8, 16 weeks, CBD 25.0 mg/kg/day",24.0 seizures per week
same,Seizure frequency: Tonic,"Patient 8, 16 weeks, CBD 25.0 mg/kg/day, baseline 280.0",56.0 seizures per week
same,Seizure frequency: Atonic,"Patient 8, 24 weeks, CBD 25.0 mg/kg/day",4.0 seizures per week
same,Seizure frequency: Tonic,"Patient 8, 24 weeks, CBD 25.0 mg/kg/day, baseline 280.0",32.0 seizures per week
same,Seizure frequency: Atonic,"Patient 8, 36 weeks, CBD 10.0 mg/kg/day",4.0 seizures per week
same,Seizure frequency: Tonic,"Patient 8, 36 weeks, CBD 10.0 mg/kg/day, baseline 280.0",896.0 seizures per week
same,reduction in atonic seizures over the treatment period,"Patient 8, treated for 36 weeks, vs baseline",95.0%
same,"reductions in seizures over period of treatment, overall","all patients, atonic, tonic and focal without impairment seizures",40.2-100.0%
same,seizure freedom from tonic seizures,"one patient (patient 5), after 12 months of CBD treatment",seizure free of tonic seizures; also recorded: completely seizure free
same,"effect on frequency of atonic, tonic and focal without impairment seizures (in words)",patients with Cortical Dysplasia and Cortical Brain Malformation,effective in reducing the frequency; also recorded: significantly reduce the number of seizures; also recorded: significant reduction
